In US20240011094A1, “METHODS FOR DIAGNOSIS AND TREATING POLYCYSTIC OVARY SYNDROME (PCOS)” (INSTITUT NATIONAL DE LA SANTÉ ET DE LA RECHERCHE MÉDICALE, priority 2020, published 2024):
No end group written: not given here.

Key:
NgTET1 [1] = conditions: cited from earlier work
NgTET1 [2] = target: T1, NgTET1 (Naegleria gruberi, UniProt D2W6T1); conditions: cited from earlier work
T1 sequence (D2W6T1 1-321): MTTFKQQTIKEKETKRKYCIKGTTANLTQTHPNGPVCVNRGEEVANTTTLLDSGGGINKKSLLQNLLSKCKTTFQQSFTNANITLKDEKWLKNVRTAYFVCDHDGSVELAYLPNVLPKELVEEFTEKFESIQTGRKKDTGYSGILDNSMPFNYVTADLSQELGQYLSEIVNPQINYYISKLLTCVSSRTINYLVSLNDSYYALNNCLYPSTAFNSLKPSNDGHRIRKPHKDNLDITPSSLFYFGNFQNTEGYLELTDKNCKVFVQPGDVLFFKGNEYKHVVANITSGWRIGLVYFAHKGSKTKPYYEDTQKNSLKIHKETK

ovaries of PAMH F3 mice = assay: RT-qPCR gene expression in ovaries of SAM-treated PAMH F3 mice; format: in vivo, mouse
Procedure: Ovaries tissues were harvest from control F1 and PAMH F3 female mice, frozen ovaries were homogenized using 1 ml of Trizol (ThermoFisher Scientific, Cat #15596026) with a tissue homogenizer and total RNA was isolated using RNeasy Lipid Tissue Mini Kit (Qiagen; Cat #74804) following the manufacturer's instructions. For gene expression analyses, cDNA was synthetized from 1000 ng of total RNA using the High capacity RNA-to-cDNA kit (Applied Biosystems, Cat #4387406) using the manufacturer's recommended cycling conditions. Real-time PCR was carried out on Applied Biosystems 7900HT Fast Real-Time PCR system using exon-boundary-specific TaqMan® Gene Expression Assays (Applied Biosystems) (Table S4). Data were analyzed by using the 2^−ΔΔCT method (Livak and Schmittgen, 2001) and normalized to housekeeping genes Beta-actin (ActB) levels. Values are expressed relative to control values, as appropriate, set at 1.
(§1) PAMH F3 female offspring (6 months-old) were cycled for 10 days before treatment, and for additional 15 days during the treatment. CNTR female offspring (6 months-old) were not treated and were cycled for 25 days. Vaginal cytology was analyzed under an inverted microscope to record the specific stage of the estrous cycle. PAMH F3 offspring were injected intraperitoneally (i.p.) daily for 15 days with 200 μL of a solution containing 0.01M phosphate buffered saline (PBS, pH 7.4) or with SAM (50 mg/Kg/day; New England Biolegends, Cat. B9003S). This concentration was chosen based on previous in vivo pharmacological studies using the same drug (Li et al., 2012). Tail-blood samples were collected for LH and T measurements at dioestrus before the beginning of the treatments, at day 10, and at the end of the treatment, at day 25.

[3] = tested on: PAMH F3 female offspring (PCOS-like mice); assay: SAM treatment of PAMH F3 female mice: estrous cyclicity, LH, T, body composition, pancreatic islets; format: in vivo, mouse
Procedure: Control F1 and PAMH F1-F3 female offspring were weaned at post-natal day P21 and checked for vaginal opening (VO) and time of first estrus. Anogenital distance (AGD) and body mass (grams, g) were measured at different ages during post-natal development (P30, 35, 40, 50 and 60). At VO and in adulthood (P60), vaginal smears were performed daily for 16 consecutive days (4-cycles) for analysis of age of first estrus and estrous cyclicity. Vaginal cytology was analyzed under an inverted microscope to identify the specific stage of the estrous cycle. The reproductive competency of these animals was determined by pairing the following mice: CNTR F1 females mated with CNTR F1 males, CNTR F1 males mated with PAMH F1-F3 females, PAMH F1-F3 females mated with PAMH F1-F3 males, for a period of 3 months. Unexperienced males and primiparous females, selected from at least three different litters, were used for the 90-days mating protocol test. Number of pups/litter (number of pups), fertility index (number of litters per females over 3 months), and time to first litter (number of days to first litter after pairing) were quantified per treatment and pairing.
LH levels were determined by a sandwich ELISA, as described previously (Steyn et al., 2013), using the mouse LH-RP reference provided by A. F. Parlow (National Hormone and Pituitary Program, Torrance, CA). Plasma T levels were analyzed using a commercial ELISA (Demeditec Diagnostics, GmnH, DEV9911) (Moore et al., 2015) according to the manufacturers' instructions.
Whole body fat, fluids, and lean tissue mass were determined by Nuclear Magnetic Resonance (MiniSpec mq 7.5, RMN Analyser, Bruker) according to the manufacturer's recommendations.
as §1

[4] = target: T2, TET1 catalytic domain (TET1CD) (Homo sapiens, UniProt Q8NFU7); conditions: cited from earlier work
T2 sequence (Q8NFU7 1418-2136 limits assumed): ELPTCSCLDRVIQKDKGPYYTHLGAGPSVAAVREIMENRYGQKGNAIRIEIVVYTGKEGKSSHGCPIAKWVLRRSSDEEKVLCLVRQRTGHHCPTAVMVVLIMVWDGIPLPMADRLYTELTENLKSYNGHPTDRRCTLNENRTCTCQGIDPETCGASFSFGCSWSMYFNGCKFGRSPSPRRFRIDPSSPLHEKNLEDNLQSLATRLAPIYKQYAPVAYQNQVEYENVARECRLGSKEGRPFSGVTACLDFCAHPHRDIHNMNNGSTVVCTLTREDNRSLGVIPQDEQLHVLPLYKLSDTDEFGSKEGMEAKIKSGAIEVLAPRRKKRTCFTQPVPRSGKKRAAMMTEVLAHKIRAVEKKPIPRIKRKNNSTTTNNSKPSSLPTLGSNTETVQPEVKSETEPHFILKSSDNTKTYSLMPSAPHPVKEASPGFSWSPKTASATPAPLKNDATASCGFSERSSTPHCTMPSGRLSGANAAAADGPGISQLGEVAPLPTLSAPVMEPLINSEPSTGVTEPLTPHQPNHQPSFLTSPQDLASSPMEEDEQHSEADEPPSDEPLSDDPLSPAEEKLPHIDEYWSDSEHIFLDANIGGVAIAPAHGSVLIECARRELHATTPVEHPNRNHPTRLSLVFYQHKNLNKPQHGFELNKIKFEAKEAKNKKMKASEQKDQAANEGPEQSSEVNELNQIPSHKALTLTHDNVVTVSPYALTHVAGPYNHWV

mTET1 = mTET1 (Mus musculus, UniProt Q3URK3); conditions: cited from earlier work
[5] = PAMH F3 females, SAM 50 mg/kg/day i.p. for 15 days
[6] = PAMH F3 females, dioestrus, day 25, SAM 50 mg/kg/day i.p. for 15 days

Chain of mTET1 (Q3URK3 whole entry): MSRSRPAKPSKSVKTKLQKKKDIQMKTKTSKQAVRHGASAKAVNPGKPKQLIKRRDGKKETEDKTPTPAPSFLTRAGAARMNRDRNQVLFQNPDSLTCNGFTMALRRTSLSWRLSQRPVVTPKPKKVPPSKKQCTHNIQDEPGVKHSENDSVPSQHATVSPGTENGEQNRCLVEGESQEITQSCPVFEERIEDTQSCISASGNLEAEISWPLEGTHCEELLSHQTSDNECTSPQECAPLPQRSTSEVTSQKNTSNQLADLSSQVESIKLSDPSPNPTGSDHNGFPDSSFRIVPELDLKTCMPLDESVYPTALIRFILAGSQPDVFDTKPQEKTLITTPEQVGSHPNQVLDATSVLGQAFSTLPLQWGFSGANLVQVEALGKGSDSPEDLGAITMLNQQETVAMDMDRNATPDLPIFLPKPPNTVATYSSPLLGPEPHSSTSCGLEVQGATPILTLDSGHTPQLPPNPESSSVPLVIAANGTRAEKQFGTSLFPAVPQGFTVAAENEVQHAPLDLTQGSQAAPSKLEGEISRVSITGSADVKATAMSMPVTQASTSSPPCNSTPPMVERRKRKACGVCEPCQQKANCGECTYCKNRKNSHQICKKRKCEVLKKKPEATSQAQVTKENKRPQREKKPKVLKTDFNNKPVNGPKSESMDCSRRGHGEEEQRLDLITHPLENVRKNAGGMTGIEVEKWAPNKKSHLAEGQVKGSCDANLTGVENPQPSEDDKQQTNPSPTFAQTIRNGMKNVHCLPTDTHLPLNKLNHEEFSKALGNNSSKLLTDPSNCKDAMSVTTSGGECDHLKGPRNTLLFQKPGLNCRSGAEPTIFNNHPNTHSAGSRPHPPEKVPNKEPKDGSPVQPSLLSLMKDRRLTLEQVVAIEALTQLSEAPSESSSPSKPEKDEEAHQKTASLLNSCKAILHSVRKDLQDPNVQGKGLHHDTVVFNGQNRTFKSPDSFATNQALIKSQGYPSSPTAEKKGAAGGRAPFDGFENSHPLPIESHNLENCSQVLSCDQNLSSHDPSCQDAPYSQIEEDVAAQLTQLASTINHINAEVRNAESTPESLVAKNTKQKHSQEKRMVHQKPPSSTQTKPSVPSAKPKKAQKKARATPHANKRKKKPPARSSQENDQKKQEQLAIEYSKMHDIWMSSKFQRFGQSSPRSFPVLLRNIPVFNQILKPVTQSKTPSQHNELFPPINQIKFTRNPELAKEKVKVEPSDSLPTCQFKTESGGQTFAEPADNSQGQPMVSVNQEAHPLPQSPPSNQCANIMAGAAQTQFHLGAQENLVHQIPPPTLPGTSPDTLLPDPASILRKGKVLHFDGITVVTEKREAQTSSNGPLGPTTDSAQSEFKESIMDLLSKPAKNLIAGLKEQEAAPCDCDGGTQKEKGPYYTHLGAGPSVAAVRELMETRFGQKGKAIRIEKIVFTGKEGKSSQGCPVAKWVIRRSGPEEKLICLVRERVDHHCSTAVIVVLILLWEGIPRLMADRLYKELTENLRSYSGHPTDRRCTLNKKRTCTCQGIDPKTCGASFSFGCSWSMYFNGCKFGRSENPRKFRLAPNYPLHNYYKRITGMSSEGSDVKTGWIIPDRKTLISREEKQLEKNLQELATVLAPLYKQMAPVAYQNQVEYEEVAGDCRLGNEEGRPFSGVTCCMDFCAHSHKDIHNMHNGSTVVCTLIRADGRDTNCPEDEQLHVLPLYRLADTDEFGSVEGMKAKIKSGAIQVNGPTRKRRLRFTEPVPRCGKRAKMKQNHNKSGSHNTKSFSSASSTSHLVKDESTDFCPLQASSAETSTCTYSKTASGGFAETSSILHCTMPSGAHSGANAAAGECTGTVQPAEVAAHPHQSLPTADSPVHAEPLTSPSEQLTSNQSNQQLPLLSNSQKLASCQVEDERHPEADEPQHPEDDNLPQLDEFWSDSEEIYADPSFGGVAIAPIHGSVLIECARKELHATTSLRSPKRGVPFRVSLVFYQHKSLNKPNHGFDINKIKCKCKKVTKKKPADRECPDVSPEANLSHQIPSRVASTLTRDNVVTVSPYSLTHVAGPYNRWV

For “cyclic peptide TET1 inhibitor, SEQ ID No 4: (Ac)YWYLPSYRVPWFC [Molecule 37]”, the IC50 (NgTET1 [1]) is listed as 1.13 µM.
In the case of `O=C(O)CCC(=O)C(=O)O` [Molecule 3, 2-oxoglutraric acid], the IC50 (NgTET1 [1]) is listed as 250 µM.
In the case of `O=C(O)/C=C/C(=O)N(O)CCCCCCCCNC(=S)Nc1ccc(-c2c3ccc(=O)cc-3oc3cc(O)ccc23)c(C(=O)O)c1` [Molecule 33], the Kd (NgTET1 [2]) is given as 0.25 µM.
In the case of `O=C(O)c1ccnc(C(=O)O)c1` [Molecule 35, 2,4-pyridinedicarboxylic acid], the IC50 (NgTET1 [1]) is listed as 27 µM.
In the case of “cyclic peptide TET1 inhibitor, SEQ ID 5: (Ac)YYRVKTYYQITYVYLSC [Molecule 38]”, the IC50 (NgTET1 [1]) is listed as 1.44 µM.
In the case of `C[S@@+](CC[C@H](N)C(=O)[O-])C[C@H]1O[C@@H](n2cnc3c(N)ncnc32)[C@H](O)[C@@H]1O` (stereo in doubt) [SAM, S-Adenosyl methionine], the “Hdc ovarian gene expression” value (ovaries of PAMH F3 mice) is reported as “rescue”, the “NF-κB mRNA in ovaries” value (ovaries of PAMH F3 mice) is reported as “normalized” and the “Ptgs2 mRNA in ovaries” value (ovaries of PAMH F3 mice) is reported as “normalized”. For the same molecule, the “Sorbs2 expression in ovaries” value (ovaries of PAMH F3 mice) was “remained unaltered”, the “Uhrf1 expression in ovaries” value (ovaries of PAMH F3 mice) was “restored” and the “Tet1 transcript levels in ovarian tissues” value (ovaries of PAMH F3 mice; compared with controls) was “unaltered”. For the same molecule, the “percentage of completed estrous cycles” value ([3]; PAMH F3 females, 6 months-old, SAM 50 mg/kg/day i.p. for 15 days) was 75%, the “body mass composition, % of fat mass” value [3, 5] was “normalized” and the “body mass composition, % of lean mass” value [3, 5] was “normalized”. For the same molecule, the “size of the islet of Langerhans” value [3, 5] was “normalized”, the “time spent in each estrous cycle stage (ovulation)” value [3, 5] was “restored normal ovulation” and the LH concentrations [3, 6] was “normalized”. The T concentrations [3, 6] was “normalized” and the “major PCOS-like neuroendocrine, reproductive and metabolic traits” value ([3]; PAMH F3 mice, postnatal SAM treatment) was “rescue”.
For “cyclic peptide TET1 inhibitor, SEQ ID No 3: (Ac)YLIYAYYTWWEHSC (Ac-YLIYAYYTWWEHSC; not fully specified (bridges)) [Molecule 36]”, the “selectivity, inhibition of TET1CD over TET2CD” value [4] is given as “tenfold” and the IC50 (NgTET1 [1]) is given as 1.48 µM.
In the case of Fumarate [Molecule 32], the IC50 (mTET1) is listed as 390 µM.
In the case of `O=C(O)CNC(=O)C(=O)O` [Molecule 30, N-oxalylglycine], the IC50 (NgTET1 [1]) is given as 49 µM.
